The results in this text go back to ChEMBL document CHEMBL1201862, “PubChem BioAssay data set” (2004).

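How tested: cells in 96-well plates exposed to compound for 48 hours at five concentrations. GI50 is the concentration that inhibits growth by half.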 The source made the active and inactive calls. No stated cut-off is given here; in the data, active = GI50 up to about 1.1 µM and inactive = higher. Some results are limits rather than exact numbers.

Test systems include CCRF-CEM; RPMI-8226; MCF7; SNB-19; SF-295; DU-145; OVCAR-3; MOLT-4; SR; NCI-H226; SK-MEL-28; SF-268; EKVX; HCT-15; MDA-MB-231; NCI-H460; TK-10; HCC 2998; A549.
Holding throughout (test): DTP human tumour cell line panel, 48 h

As to `COc1cc2cc(C(=O)N3CC(CCl)c4ccc(N(C)C)cc43)[nH]c2c(OC)c1OC` (centres undefined), the GI50 in the experiment on CCRF-CEM is 0.0547 µM (active); in the experiment with RPMI-8226, 0.043 µM (active); in the experiment with MCF7, 0.0207 µM (active); in the experiment on SNB-19, 0.304 µM (active); in the experiment on SF-295, 0.0589 µM (active); with DU-145, 0.0333 µM (active). Moreover, the GI50 with OVCAR-3 was 0.0959 µM (active); in the experiment with MOLT-4, 0.048 µM (active); in the experiment on SR it was 0.0151 µM (active); with NCI-H226, 0.152 µM (active); with SK-MEL-28, 0.0556 µM (active); in the experiment on SF-268, 0.0678 µM (active). Moreover, the GI50 in the experiment on EKVX is 0.173 µM (active); in the experiment with HCT-15 it was 0.145 µM; in the experiment with MDA-MB-231, 0.234 µM (active); in the experiment on NCI-H460 it was 0.0269 µM (active); with TK-10, 0.13 µM (active); in the experiment with HCC 2998, 0.0303 µM (active). Besides, the GI50 with A549 was 0.0194 µM (active).
For the molecule `CC(=O)OC1C(C)OC(OC2C[C@](O)(C(C)=O)Cc3c(O)c4c(c(O)c32)C(=O)c2ccccc2C4=O)C(F)C1OC(C)=O` (some centres undefined), the GI50 in the experiment on CCRF-CEM is 0.197 µM (active); in the experiment with RPMI-8226 it was 0.175 µM (active); in the experiment on MCF7, 0.0474 µM (active); with SNB-19, 0.245 µM (active); in the experiment with SF-295, 0.13 µM (active); in the experiment with DU-145 it was 0.23 µM (active). The GI50 in the experiment with OVCAR-3 was 2.52 µM (inactive); in the experiment on MOLT-4, < 0.0142 µM (active); in the experiment on SR, 0.101 µM (active); with NCI-H226 it was 0.335 µM (active); in the experiment with SK-MEL-28, 3.4 µM (inactive); in the experiment with SF-268, 0.541 µM (active). Further, the GI50 with EKVX is 3.68 µM (inactive); in the experiment on HCT-15, 0.358 µM; in the experiment on MDA-MB-231 it was 1.06 µM (active); in the experiment on NCI-H460 it was 0.0353 µM (active); in the experiment on TK-10 it was 1.6 µM (inactive); in the experiment with HCC 2998, 1.91 µM (inactive). Moreover, the GI50 with A549 was 0.154 µM (active).
`C=C1CC(C)(COc2ccc3c(C)cc(=O)oc3c2)OC1=O` (centres undefined): the GI50 with CCRF-CEM is 0.229 µM (active); in the experiment with RPMI-8226, 0.414 µM (active); in the experiment with MCF7, 0.706 µM (active); with SNB-19 it was 13.7 µM (inactive); in the experiment on SF-295, 4.34 µM (inactive); with DU-145, 2.36 µM (inactive). Besides, the GI50 with OVCAR-3 was 2.31 µM (inactive); with MOLT-4, 1.47 µM (inactive); in the experiment with SR, 0.918 µM (active); with NCI-H226 it was 8.69 µM (inactive); in the experiment with SK-MEL-28, 2.72 µM (inactive); with SF-268 it was 4.41 µM (inactive). Moreover, the GI50 in the experiment on EKVX was 4.7 µM (inactive); in the experiment on HCT-15, 1.47 µM; in the experiment on MDA-MB-231 it was 3.92 µM (inactive); in the experiment with NCI-H460 it was 5.3 µM (inactive); in the experiment on TK-10, 1.26 µM (inactive); in the experiment on HCC 2998, 3.5 µM (inactive). Moreover, in the experiment on A549, the GI50 is 8.79 µM (inactive).
Consider `Cc1nnc2sc(-c3ccc([N+](=O)[O-])o3)nn12`, for which the GI50 in the experiment on CCRF-CEM was 1.85 µM (inactive); in the experiment with RPMI-8226, 10.5 µM (inactive); in the experiment on MCF7 it was 7.18 µM (inactive); in the experiment on SNB-19, 18.8 µM (inactive); in the experiment on SF-295 it was 16.9 µM (inactive); in the experiment on DU-145 it was 15 µM (inactive). The GI50 in the experiment with OVCAR-3 is 12.8 µM (inactive); in the experiment on MOLT-4 it was 3.15 µM (inactive); with SR, 8.61 µM (inactive); with NCI-H226, 15 µM (inactive); in the experiment on SF-268 it was 13.2 µM (inactive); in the experiment with EKVX, 20.5 µM (inactive). The GI50 with HCT-15 is 5.06 µM; in the experiment with MDA-MB-231, 14 µM (inactive); in the experiment on NCI-H460, 17.9 µM (inactive); in the experiment on TK-10 it was 15.3 µM (inactive); in the experiment with HCC 2998, 12.5 µM (inactive); in the experiment with A549 it was 37.8 µM (inactive).
`OC(CC(CC(O)(C(F)(F)F)C(F)(F)F)=NN=C(CC(O)(C(F)(F)F)C(F)(F)F)CC(O)(C(F)(F)F)C(F)(F)F)(C(F)(F)F)C(F)(F)F`: the GI50 in the experiment with CCRF-CEM, with RPMI-8226, in the experiment on MCF7, in the experiment with SNB-19, in the experiment on SF-295 and with DU-145 was > 10 µM (inactive) in each case. Moreover, the GI50 in the experiment with OVCAR-3, in the experiment with MOLT-4, in the experiment on SR, with NCI-H226, with SK-MEL-28 and in the experiment on SF-268 was > 10 µM (inactive) throughout. In addition, the GI50 is > 10 µM (inactive) in the experiment with EKVX; > 10 µM in the experiment on HCT-15; > 10 µM (inactive) with MDA-MB-231; > 10 µM (inactive) in the experiment on NCI-H460; > 10 µM (inactive) in the experiment on TK-10; > 10 µM (inactive) in the experiment on HCC 2998. Moreover, in the experiment on A549, the GI50 was > 10 µM (inactive).
Turning to `CC1=NN(c2nc(N)nc(/C(C#N)=C/c3ccc([N+](=O)[O-])o3)n2)C(C)(C)C1`, the GI50 is 1.3 µM (inactive) in the experiment on CCRF-CEM; 3.01 µM (inactive) in the experiment on RPMI-8226; 1.69 µM (inactive) with MCF7; 15.7 µM (inactive) with SNB-19; 16.5 µM (inactive) with SF-295; 6.35 µM (inactive) with DU-145. The GI50 in the experiment with OVCAR-3 was 3.32 µM (inactive); in the experiment with MOLT-4, 2.26 µM (inactive); with SR, 2.58 µM (inactive); in the experiment on NCI-H226 it was 2.24 µM (inactive); in the experiment on SK-MEL-28, 5.06 µM (inactive); in the experiment on SF-268, 3.85 µM (inactive). The GI50 was 3.37 µM (inactive) in the experiment on EKVX; 1.42 µM in the experiment on HCT-15; 1.81 µM (inactive) in the experiment with MDA-MB-231; 2.57 µM (inactive) with NCI-H460; 2 µM (inactive) in the experiment with TK-10; 15.8 µM (inactive) in the experiment with HCC 2998. The GI50 in the experiment on A549 is 13.1 µM (inactive).
On to `CCOC(=O)CSc1nc(-c2ccccc2)c(C#N)c(=O)[nH]1`, for which the GI50 with CCRF-CEM, in the experiment with RPMI-8226, in the experiment on MCF7, with SNB-19, in the experiment on SF-295 and in the experiment with DU-145 was > 100 µM (inactive) in each case. Further, the GI50 in the experiment with OVCAR-3, in the experiment with MOLT-4, in the experiment with SR, in the experiment on NCI-H226, with SK-MEL-28 and with SF-268 was > 100 µM (inactive) each time. The GI50 in the experiment on EKVX was > 100 µM (inactive); in the experiment with HCT-15, > 100 µM; in the experiment with MDA-MB-231 it was > 100 µM (inactive); in the experiment on NCI-H460 it was > 100 µM (inactive); with TK-10, > 100 µM (inactive); in the experiment with HCC 2998, > 100 µM (inactive). The GI50 in the experiment with A549 was > 100 µM (inactive).
Regarding `COC(=O)[C@@H]1[C@@H]2NC(=S)N[C@@]1(C)Oc1ccccc12`, the GI50 in the experiment with CCRF-CEM was 61.9 µM (inactive); in the experiment with RPMI-8226, 48.2 µM (inactive); in the experiment with MCF7, 45.7 µM (inactive); in the experiment with SNB-19, 49 µM (inactive); in the experiment with SF-295, 38.5 µM (inactive); in the experiment with DU-145, 36.3 µM (inactive). The GI50 is > 100 µM (inactive) in the experiment on OVCAR-3; 0.324 µM (active) in the experiment with MOLT-4; 95.3 µM (inactive) in the experiment with SR; 91.4 µM (inactive) with NCI-H226; > 100 µM (inactive) in the experiment with SK-MEL-28; 39 µM (inactive) with SF-268. For the same molecule, the GI50 was 52.5 µM (inactive) in the experiment on EKVX; 32.1 µM with HCT-15; 74.6 µM (inactive) in the experiment on MDA-MB-231; 44.2 µM (inactive) in the experiment on NCI-H460; > 100 µM (inactive) in the experiment on TK-10; 41.6 µM (inactive) in the experiment on HCC 2998.
Turning to `O=C(NNc1ccnc2cc(Cl)ccc12)/C(=C\c1ccccc1Cl)NC(=O)c1ccccc1`, the GI50 is 29.8 µM (inactive) in the experiment with CCRF-CEM; 29.2 µM (inactive) in the experiment on RPMI-8226; 15.5 µM (inactive) in the experiment on MCF7; 46.2 µM (inactive) in the experiment on SNB-19; 27.5 µM (inactive) in the experiment with SF-295; 55.7 µM (inactive) with DU-145. Also, the GI50 in the experiment with OVCAR-3 was 16.5 µM (inactive); in the experiment with SR it was 35 µM (inactive); with NCI-H226, 23.2 µM (inactive); with SK-MEL-28, > 100 µM (inactive); in the experiment on SF-268, 27.4 µM (inactive); in the experiment on EKVX, 31.8 µM (inactive). For the same molecule, the GI50 in the experiment on HCT-15 was 48.4 µM; in the experiment with MDA-MB-231, 74 µM (inactive); with NCI-H460 it was 42.1 µM (inactive); with TK-10, 66.1 µM (inactive); in the experiment on HCC 2998 it was 60 µM (inactive); in the experiment on A549, 38.2 µM (inactive).
For the molecule `C=C(Br)C(Br)(CCl)CCC(Cl)C(C)C.C=C(Cl)C(Br)(CCl)CCC(Cl)C(C)C` (centres undefined), the GI50 in the experiment with CCRF-CEM is 0.254 µM (active); in the experiment with RPMI-8226, 0.208 µM (active); with MCF7 it was 1.94 µM (inactive); in the experiment on SNB-19, 3 µM (inactive); with SF-295, 6.92 µM (inactive); in the experiment with DU-145, 1.65 µM (inactive). In addition, the GI50 was 2.29 µM (inactive) in the experiment with OVCAR-3; 0.439 µM (active) with MOLT-4; 0.442 µM (active) in the experiment with SR; 3.69 µM (inactive) in the experiment on NCI-H226; 1.77 µM (inactive) in the experiment with SK-MEL-28; 1.75 µM (inactive) in the experiment on SF-268. The GI50 is 15.8 µM (inactive) in the experiment with EKVX; 1.24 µM (inactive) in the experiment on MDA-MB-231; 1.57 µM (inactive) in the experiment on NCI-H460; 2.14 µM (inactive) in the experiment on TK-10; 3.01 µM (inactive) in the experiment with HCC 2998; 14.8 µM (inactive) with A549.
As to `Cn1c2ccccc2n2c3ncccc3/c(=N/CCCC(=O)O)c(C#N)c12`, the GI50 with CCRF-CEM, in the experiment on RPMI-8226, with MCF7, in the experiment on SNB-19, in the experiment on SF-295 and in the experiment with DU-145 was > 100 µM (inactive) throughout. Besides, the GI50 with OVCAR-3, in the experiment on MOLT-4, in the experiment with SR, in the experiment on NCI-H226, in the experiment on SK-MEL-28 and in the experiment on SF-268 was > 100 µM (inactive) throughout. The GI50 was > 100 µM (inactive) with EKVX; > 100 µM in the experiment on HCT-15; > 100 µM (inactive) in the experiment with MDA-MB-231; > 100 µM (inactive) in the experiment on NCI-H460; > 100 µM (inactive) in the experiment with HCC 2998; > 100 µM (inactive) with A549.

As usually defined, the GI50 is the concentration giving 50% growth inhibition.
